Experimental data: patent US8178506B2, “Oligomeric compounds and compositions for use in modulation of small non-coding RNAs” (Regulus Therapeutics Inc., priority 2003, dated 2012)
In the oligonucleotide strings, read from the 5' end, every base follows the letter of its sugar. An asterisk marks phosphorothioate; unmarked linkages are phosphodiester. Other units and linkages are bracketed, terminal groups are in braces. A string of capitals states the bases alone. e = 2'-O-(2-methoxyethyl) (MOE); [5mC] = 5-methylcytosine; d = 2'-deoxy (DNA)

Columns and labels:
[1] = system: mir-15a pri-miRNA; test: mir-15a pri-miRNA expression in HepG2 cells (real-time RT-PCR); assay type: cell-based, human; conditions: for Expression of mir-15a pri-miRNA (% UTC): HepG2 cells, 100 nM, real-time RT-PCR; for expression of the mir-15a pri-miRNA molecule: HepG2, 100 nM
Method: Using the real-time RT-PCR methods described in Example 19, the expression levels of the mir-15a pri-miRNA were compared in HepG2 cells treated with a nested series of chimeric gapmer oligomeric compounds, targeting and spanning the entire length of the mir-15a pri-miRNA; these compounds are shown in Table 45, below. […] All cytidine residues are 5-methylcytidines. Using the transfection methods described herein, HepG2 cells were treated with 100 nM of each of these gapmer oligomeric compounds. Total RNA was isolated from HepG2 cells by lysing cells in 1 mL TRIZOL™ (Invitrogen) using the manufacturer's recommended protocols. Real-time RT-PCR analysis was performed using a primer/probe set specific for the mir-15a pri-miRNA molecule to assess the effects of these compounds on expression of the mir-15a pri-miRNA molecule. ISIS 339317 ([…]; SEQ ID NO.: 885) was used as the forward primer, ISIS 339318 (TGGCCTGCACCTTTTCAAA; SEQ ID NO.: 886) was used as the reverse primer, and ISIS 339319 ([…]; SEQ ID NO.: 887) was used as the probe. Total RNA was quantified using RiboGreen™ RNA quantification reagent (Molecular Probes, Inc. Eugene, Oreg.), expression levels observed for each target are normalized to 5.8S rRNA, and values are expressed relative to the untreated control. Inhibition of expression of the mir15a pri-miRNA by these gapmer oligomeric compounds is expressed as a percentage of RNA levels in untreated control cells.

[2] = system: HeLa cells; test: Cell cycle assay in HeLa cells; assay type: cell-based, human
[3] = system: BJ cells; test: Cell cycle assay in BJ cells; assay type: cell-based, human; conditions: 200 nM, 48 hours; for % cells in cell cycle phase G1 / % cells in cell cycle phase G2/M / % cells in cell cycle phase S / % cells in cell cycle phase aneuploid / % cells in cell cycle phase subG1: relative to untreated control
Method: (§1) BJ cells were routinely cultured in MEM high glucose with 2 mM L-glutamine and Earle's BSS adjusted to contain 1.5 g/L sodium bicarbonate and supplemented with 10% fetal bovine serum, 0.1 mM non-essential amino acids and 1.0 mM sodium pyruvate (all media and supplements from Invitrogen Life Technologies, Carlsbad, Calif.). B16-F10 cells were routinely cultured in DMEM high glucose (Invitrogen Life Technologies, Carlsbad, Calif.) supplemented with 10% fetal bovine serum (Invitrogen Life Technologies, Carlsbad, Calif.). T47D cells were cultured in DMEM High glucose media (Invitrogen Life Technologies, Carlsbad, Calif.) supplemented with 10% fetal bovine serum. […] Cells were plated on collagen-coated 24-well plates (Falcon-Primaria #3047, BD Biosciences, Bedford, Mass.) at approximately 50,000 cells per well and allowed to attach to wells overnight.
(§2) In further studies, additional cell lines were treated with oligomeric compounds targeted against miRNAs to assess the effects of each oligomeric compound on cell cycling. BJ, B16, T47D, and HeLa cells were cultured and transfected as described above. […] T47Dp53 cells are T47D cells that have been transfected with and selected for maintenance of a plasmid that expresses a wildtype copy of the p53 gene (for example, pCMV-p53; Clontech, Palo Alto, Calif.), using standard laboratory procedures. BJ cells were treated with 200 nM of each oligomeric compound, and T47D, T47Dp53, HeLa, and B16 cells were treated with 150 nM of each oligomeric compound. The human foreskin fibroblast BJ cell line represents a non-cancer cell line, while HeLa, T47D, T47Dp53 cells and the mouse melanoma cell line B16-F10 represent cancerous cell lines. For comparison, oligomeric compounds ISIS 183891 (SEQ ID NO: 847) and ISIS 285717 ([…]; herein incorporated as SEQ ID NO: 857), both targeting the kinesin-like 1/Eg5 mRNA, involved in cell cycling, were used as positive controls. The random-mer ISIS 29848 was used as a negative control. Additionally, the oligomeric compounds ISIS Number 25690 ([…]; herein incorporated as SEQ ID NO: 858) and ISIS Number 25691 ([…]; herein incorporated as SEQ ID NO: 859), targeted to nucleotides 3051-3070 and 3085-3104, respectively, of the mRNA encoding the Drosha RNase III (GenBank Accession NM_013235.2, incorporated herein as SEQ ID NO: 860) were also tested. ISIS Number 25690 and ISIS Number 25691 are 5-10-52′-MOE gapmer compounds, 20 nucleotides in length, with phosphorothioate internucleoside linkages throughout the oligomeric compound. All cytidine residues are 5-methylcytidines. Transfections were performed using the methods described herein. Cells were prepared for flow cytometry 48-hours after oligonucleotide treatment. Results of these studies are shown in Table 35, where data are expressed as percentage of cells in each phase relative to the untreated control cells in that phase.

[4] = system: B16-F10 cells; test: Cell cycle assay in B16-F10 cells; assay type: cell-based, mouse; conditions: 150 nM, 48 hours, relative to untreated control
Method: as §1, §2

[5] = system: T47D cells; test: Cell cycle assay in T47D cells; assay type: cell-based, human; conditions: 150 nM, 48 hours, relative to untreated control
Method: as §1, §2

[6] = system: T47Dp53 cells; test: Cell cycle assay in T47Dp53 cells; assay type: cell-based, human; conditions: 150 nM, 48 hours; for % cells in cell cycle phase G1 / % cells in cell cycle phase G2/M / % cells in cell cycle phase S / % cells in cell cycle phase aneuploid / % cells in cell cycle phase subG1: relative to untreated control
Method: as §2

[7] = HeLa cells, 150 nM oligomeric compound, 24 hours, relative to untreated control (UTC = 100)
[8] = HeLa cells, 150 nM oligomeric compound, 48 hours after treatment, relative to untreated control (UTC=100)
[9] = HeLa cells, 150 nM, 48 hours, relative to untreated control

347977 (eT*eT*eG*eT*eA*dT*dT*dT*dT*dT*dG*dA*dG*dG*d[5mC]*eA*eG*e[5mC]*eA*e[5mC]) [compound 347977]
Expression of mir-15a pri-miRNA (% UTC) [1]: 111.3 % UTC

347964 (eT*eA*eT*eA*eA*d[5mC]*dA*dT*dT*dG*dA*dT*dG*dT*dA*eA*eT*eA*eT*eG; antisense) [compound 347964]
Expression of mir-15a pri-miRNA (% UTC) [1]: 13.7 % UTC

ISIS 347980: 5-10-5 2′-MOE gapmer PS; targets mir-15a pri-miRNA (antisense eA*eG*eA*eT*e[5mC]*dA*dG*dA*dT*d[5mC]*d[5mC]*dT*dT*dG*dT*eA*eT*eT*eT*eT)
expression of the mir-15a pri-miRNA molecule [1]: significant inhibition of expression of the mir-15a pri-miRNA molecule

347983 (eA*eA*eA*eT*eA*dT*dA*dT*dT*dT*dT*d[5mC]*dT*dT*d[5mC]*eA*eG*eA*eA*eG; antisense) [compound 347983]
Expression of mir-15a pri-miRNA (% UTC) [1]: 13.0 % UTC

ISIS 347968: 5-10-5 2′-MOE gapmer PS; targets mir-15a pri-miRNA (antisense e[5mC]*e[5mC]*eT*eG*e[5mC]*dA*d[5mC]*d[5mC]*dT*dT*dT*dT*d[5mC]*dA*dA*eA*eA*eT*e[5mC]*e[5mC])
expression of the mir-15a pri-miRNA molecule [1]: significant inhibition of expression of the mir-15a pri-miRNA molecule

347968 (e[5mC]*e[5mC]*eT*eG*e[5mC]*dA*d[5mC]*d[5mC]*dT*dT*dT*dT*d[5mC]*dA*dA*eA*eA*eT*e[5mC]*e[5mC]; antisense) [compound 347968]
Expression of mir-15a pri-miRNA (% UTC) [1]: 8.4 % UTC

ISIS 347973: 5-10-5 2′-MOE gapmer PS; targets mir-15a pri-miRNA (antisense eG*eG*e[5mC]*eA*eG*d[5mC]*dA*d[5mC]*dA*dA*dT*dA*dT*dG*dG*e[5mC]*e[5mC]*eT*eG*e[5mC])
expression of the mir-15a pri-miRNA molecule [1]: stimulate an increase in expression levels of the mir-15a pri-miRNA

347966 (eT*eG*e[5mC]*eT*eA*d[5mC]*dT*dT*dT*dA*d[5mC]*dT*d[5mC]*d[5mC]*dA*eA*eG*eG*eT*eT; antisense) [compound 347966]
Expression of mir-15a pri-miRNA (% UTC) [1]: 39.2 % UTC

347974 (eT*eG*eA*eG*eG*d[5mC]*dA*dG*d[5mC]*dA*d[5mC]*dA*dA*dT*dA*eT*eG*eG*e[5mC]*e[5mC]; antisense) [compound 347974]
Expression of mir-15a pri-miRNA (% UTC) [1]: 98.1 % UTC

ISIS 347966: 5-10-5 2′-MOE gapmer PS; targets mir-15a pri-miRNA (antisense eT*eG*e[5mC]*eT*eA*d[5mC]*dT*dT*dT*dA*d[5mC]*dT*d[5mC]*d[5mC]*dA*eA*eG*eG*eT*eT)
expression of the mir-15a pri-miRNA molecule [1]: significant inhibition of expression of the mir-15a pri-miRNA molecule

347979 (eA*eG*eA*eT*e[5mC]*d[5mC]*dT*dT*dG*dT*dA*dT*dT*dT*dT*eT*eG*eA*eG*eG; antisense) [compound 347979]
Expression of mir-15a pri-miRNA (% UTC) [1]: 74.9 % UTC

ISIS 347983: 5-10-5 2′-MOE gapmer PS; targets mir-15a pri-miRNA (antisense eA*eA*eA*eT*eA*dT*dA*dT*dT*dT*dT*d[5mC]*dT*dT*d[5mC]*eA*eG*eA*eA*eG)
expression of the mir-15a pri-miRNA molecule [1]: significant inhibition of expression of the mir-15a pri-miRNA molecule

347973 (eG*eG*e[5mC]*eA*eG*d[5mC]*dA*d[5mC]*dA*dA*dT*dA*dT*dG*dG*e[5mC]*e[5mC]*eT*eG*e[5mC]) [compound 347973]
Expression of mir-15a pri-miRNA (% UTC) [1]: 143.3 % UTC

328744 (antisense e[5mC]*eG*eG*eA*eT*d[5mC]*d[5mC]*dT*dG*dT*dT*dA*d[5mC]*d[5mC]*dT*e[5mC]*eA*e[5mC]*e[5mC]*eA) [compound 328744]
% cells aneuploid [2, 7]: 111%
% cells in cell cycle phase G1 [2, 7]: 31%
% cells in cell cycle phase G2/M [2, 7]: 167%
% cells in cell cycle phase S [2, 7]: 108%
% cells in cell cycle phase subG1 [2, 7]: 229%
% cells in cell cycle phase: G1 [2, 8]: 31%
% cells in cell cycle phase: G2/M [2, 8]: 334%
% cells in cell cycle phase: S [2, 8]: 78%
% cells in cell cycle phase: aneuploid [2, 8]: 171%
% cells in cell cycle phase: subG1 [2, 8]: 1774%
% cells in cell cycle phase G1 [2, 9]: 53%
% cells in cell cycle phase G2/M [2, 9]: 213%
% cells in cell cycle phase S [2, 9]: 110%
% cells in cell cycle phase aneuploid [2, 9]: 178%
% cells in cell cycle phase subG1 [2, 9]: 1057%
% cells in cell cycle phase G1 [3]: 94%
% cells in cell cycle phase G2/M [3]: 127%
% cells in cell cycle phase S [3]: 111%
% cells in cell cycle phase aneuploid [3]: 158%
% cells in cell cycle phase subG1 [3]: 125%
% cells in cell cycle phase G1 [4]: 108%
% cells in cell cycle phase G2/M [4]: 110%
% cells in cell cycle phase S [4]: 87%
% cells in cell cycle phase aneuploid [4]: 115%
% cells in cell cycle phase subG1 [4]: 153%
% cells in cell cycle phase G1 [5]: 90%
% cells in cell cycle phase G2/M [5]: 118%
% cells in cell cycle phase S [5]: 87%
% cells in cell cycle phase aneuploid [5]: 191%
% cells in cell cycle phase subG1 [5]: 85%
% cells in cell cycle phase G1 [6]: 130%
% cells in cell cycle phase G2/M [6]: 101%
% cells in cell cycle phase S [6]: 59%
% cells in cell cycle phase aneuploid [6]: 100%
% cells in cell cycle phase subG1 [6]: 90%

ISIS 328744: SEQ ID NO: 653, targeting mir-182 (e[5mC]*eG*eG*eA*eT*d[5mC]*d[5mC]*dT*dG*dT*dT*dA*d[5mC]*d[5mC]*dT*e[5mC]*eA*e[5mC]*e[5mC]*eA)
phase of the cell cycle in which cells arrest or delay ([2]; HeLa, 150 nM, 48 hours): increase in the percentage of cells in the G2/M-phase of the cell cycle as well as in the subG1 category
effect on cell cycling [3]: not affected
effect on cell cycling [6]: not affected

25691 (antisense eG*e[5mC]*e[5mC]*eA*eA*dG*dG*d[5mC]*dG*dT*dG*dA*d[5mC]*dA*dT*eG*eA*eT*eA*eT) [compound 25691]
% cells in cell cycle phase G1 [2, 9]: 53%
% cells in cell cycle phase G2/M [2, 9]: 113%
% cells in cell cycle phase S [2, 9]: 141%
% cells in cell cycle phase aneuploid [2, 9]: 203%
% cells in cell cycle phase subG1 [2, 9]: 881%
% cells in cell cycle phase G1 [3]: 94%
% cells in cell cycle phase G2/M [3]: 125%
% cells in cell cycle phase S [3]: 116%
% cells in cell cycle phase aneuploid [3]: 209%
% cells in cell cycle phase subG1 [3]: 183%
% cells in cell cycle phase G1 [4]: 116%
% cells in cell cycle phase G2/M [4]: 99%
% cells in cell cycle phase S [4]: 83%
% cells in cell cycle phase aneuploid [4]: 105%
% cells in cell cycle phase subG1 [4]: 316%
% cells in cell cycle phase G1 [5]: 94%
% cells in cell cycle phase G2/M [5]: 104%
% cells in cell cycle phase S [5]: 104%
% cells in cell cycle phase aneuploid [5]: 203%
% cells in cell cycle phase subG1 [5]: 125%
% cells in cell cycle phase G1 [6]: 130%
% cells in cell cycle phase G2/M [6]: 93%
% cells in cell cycle phase S [6]: 66%
% cells in cell cycle phase aneuploid [6]: 95%
% cells in cell cycle phase subG1 [6]: 212%
